Experimental data as given in paper PMC11288027, “Exploring novel microbial metabolites and drugs for inhibiting Clostridioides difficile” (mSphere, 2024).
≈ marks a conversion by molar mass, not a printed value. Read-outs that look alike come from different tables or passages of the source.

Assays:
Bif. breve = assay: MIC against human gut microbiota; format: cell-based, Bifidobacterium breve; conditions: Bifidobacterium breve, ATCC15700; Bif. breve ATCC 15700, BHIS broth, anaerobic; read-out: minimum inhibitory concentration (MIC)
L. brevis = assay: MIC against human gut microbiota; format: cell-based, Lactobacillus brevis; conditions: Levilactobacillus brevis, ATCC14864; L. brevis ATCC-14864, MRS broth, 5% CO2; read-out: minimum inhibitory concentration (MIC)
[1] = test system: C. difficile ATCC BAA-1870; assay: MIC of active hits by broth microdilution; conditions: C. difficile ATCC BAA-1870, 48 h anaerobic; for MIC: Clostridioides difficile, ATCCBAA1870, 48 h
Bif. angulatum = assay: MIC against human gut microbiota; format: cell-based, Bifidobacterium angulatum; conditions: Bifidobacterium angulatum; Bif. angulatum HM- 1189, BHIS broth, anaerobic; read-out: minimum inhibitory concentration (MIC)
E. faecium = assay: MIC against human gut microbiota; format: cell-based, Enterococcus faecium; conditions: Enterococcus faecium; E. faecium HM-202, TSB, aerobic; read-out: minimum inhibitory concentration (MIC)
[2] = test system: C. difficile clinical isolates; assay: MIC against a panel of 20 C. difficile clinical isolates (broth microdilution); format: cell-based, Clostridioides difficile; conditions: Clostridioides difficile; for MIC50: concentration that inhibited 50% of the 20 C. difficile clinical isolates
[3] = Cytotoxicity assessment against Vero cells (MTS); conditions: monkey, Vero cells (monkey kidney epithelial cells)
[4] = test system: monkey kidney epithelial (Vero) cells; assay: Cytotoxicity assessment against Vero cells (MTS); conditions: Vero IC50 relative to MIC90 of C. difficile panel
L. casei = assay: MIC against human gut microbiota; format: cell-based; conditions: Lacticaseibacillus casei, ATCC334; L. casei ATCC 334, MRS broth, 5% CO2; read-out: minimum inhibitory concentration (MIC)
E. fecalis = assay: MIC against human gut microbiota; format: cell-based, Enterococcus faecalis; conditions: Enterococcus faecalis; E. fecalis HM-970, TSB, aerobic; read-out: minimum inhibitory concentration (MIC)
Bif. adolescentis = assay: MIC against human gut microbiota; format: cell-based, Bifidobacterium adolescentis; conditions: Bifidobacterium adolescentis; Bif. adolescentis HM- 633, BHIS broth, anaerobic; read-out: minimum inhibitory concentration (MIC)
B. fragilis = assay: MIC against human gut microbiota; format: cell-based, Bacteroides fragilis; conditions: Bacteroides fragilis, anaerobic, read-out: minimum inhibitory concentration (MIC)
L. rhamanosus = assay: MIC against human gut microbiota; format: cell-based, Lactobacillus rhamnoosus; conditions: Lactobacillus, ATCC53103; L. rhamanosus ATCC-53103, MRS broth, 5% CO2; read-out: minimum inhibitory concentration (MIC)
Bif. longum = assay: MIC against human gut microbiota; format: cell-based, Bifidobacterium longum; conditions: Bifidobacterium longum, anaerobic, read-out: minimum inhibitory concentration (MIC)
B. dorei = assay: MIC against human gut microbiota; format: cell-based, Bacteroides dorei; conditions: Phocaeicola dorei; B. dorei HM- 719, BHIS broth, anaerobic; read-out: minimum inhibitory concentration (MIC)
Escherichia coli = test system: Escherichia coli; set-up: method as in earlier work; conditions: cited from earlier work
[5] = test system: C. difficile ATCC BAA-1870; assay: Time-kill assay at 5 × MIC; conditions: C. difficile ATCC BAA-1870, ~10^6 CFU/mL, up to 24 h
Bacillus subtilis = test system: Bacillus subtilis; set-up: method as in earlier work; conditions: cited from earlier work
enterococcal species = assay: MIC against human gut microbiota, summary in text; format: cell-based; conditions: summary over the Enterococcus strains of Table 4
[6] = test system: methicillin-resistant S. aureus (MRSA); set-up: method as in earlier work; conditions: cited from earlier work
in vitro = conditions: monkey
[7] = test system: Mycobacterium tuberculosis; set-up: method as in earlier work; conditions: read-out: half-maximal inhibitory concentration [IC50]; cited from earlier work
[8] = B. fragilis HM- 709, BHIS broth
[9] = B. fragilis HM- 718, BHIS broth
[10] = Bif. longum HM- 845, BHIS broth
[11] = Bif. longum HM- 846, BHIS broth
[12] = Bif. longum HM- 847, BHIS broth
[13] = Bif. longum HM- 848, BHIS broth

## COC(=O)N/N=C/c1c[n+]([O-])c2ccccc2[n+]1[O-] [Carbadox]
Bif. breve
  MIC: 16 µg/mL (≈ 61 µM)
L. brevis
  MIC: 32 µg/mL (≈ 122 µM)
[1]
  MIC (μM): 4 µM
  MIC: 1.05 µg/mL
Bif. angulatum
  MIC: 4 µg/mL (≈ 15.3 µM)
E. faecium
  MIC: 128 µg/mL (≈ 488 µM)
[2]; 48 h, read-out: MIC50
  MIC50: 1 µg/mL (≈ 3.81 µM)
[2]; ATCC630, C. difficile ATCC 630, read-out: minimum inhibitory concentration (MIC)
  MIC: 1 µg/mL (≈ 3.81 µM)
[2]; ATCC43255, C. difficile ATCC 43255, read-out: minimum inhibitory concentration (MIC)
  MIC: 1 µg/mL (≈ 3.81 µM)
[2]; ATCCBAA1870, C. difficile ATCC BAA-1870 (Ribotype-027), purchased compounds, panel test, read-out: minimum inhibitory concentration (MIC)
  MIC: 2 µg/mL (≈ 7.63 µM)
[2]; C. difficile CD-1 (Ribotype-027), read-out: minimum inhibitory concentration (MIC)
  MIC: 2 µg/mL (≈ 7.63 µM)
[2]; C. difficile CD-6 (Ribotype-027), read-out: minimum inhibitory concentration (MIC)
  MIC: 0.5 µg/mL (≈ 1.91 µM)
[2]; C. difficile CD-10(Ribotype-027), read-out: minimum inhibitory concentration (MIC)
  MIC: 2 µg/mL (≈ 7.63 µM)
[2]; C. difficile CD-12, read-out: minimum inhibitory concentration (MIC)
  MIC: 2 µg/mL (≈ 7.63 µM)
[2]; C. difficile CD-13, read-out: minimum inhibitory concentration (MIC)
  MIC: 1 µg/mL (≈ 3.81 µM)
[2]; C. difficile CD-15, read-out: minimum inhibitory concentration (MIC)
  MIC: 1 µg/mL (≈ 3.81 µM)
[2]; C. difficile CD-22, read-out: minimum inhibitory concentration (MIC)
  MIC: 2 µg/mL (≈ 7.63 µM)
[2]; C. difficile CD-23, read-out: minimum inhibitory concentration (MIC)
  MIC: 2 µg/mL (≈ 7.63 µM)
[2]; C. difficile CD-24, read-out: minimum inhibitory concentration (MIC)
  MIC: 1 µg/mL (≈ 3.81 µM)
[2]; C. difficile CD-26 (Ribotype-027), read-out: minimum inhibitory concentration (MIC)
  MIC: 2 µg/mL (≈ 7.63 µM)
[2]; C. difficile CD-28, read-out: minimum inhibitory concentration (MIC)
  MIC: 2 µg/mL (≈ 7.63 µM)
[2]; C. difficile CD-29 (Ribotype-027), read-out: minimum inhibitory concentration (MIC)
  MIC: 0.5 µg/mL (≈ 1.91 µM)
[2]; C. difficile CD-30, read-out: minimum inhibitory concentration (MIC)
  MIC: 2 µg/mL (≈ 7.63 µM)
[2]; C. difficile NR-49302, read-out: minimum inhibitory concentration (MIC)
  MIC: 2 µg/mL (≈ 7.63 µM)
[2]; C. difficile NR-49304, read-out: minimum inhibitory concentration (MIC)
  MIC: 1 µg/mL (≈ 3.81 µM)
[2]; C. difficile NR-49308, read-out: minimum inhibitory concentration (MIC)
  MIC: 1 µg/mL (≈ 3.81 µM)
[2]; C. difficile NR-49319, read-out: minimum inhibitory concentration (MIC)
  MIC: 0.5 µg/mL (≈ 1.91 µM)
[2]; read-out: MIC50
  MIC50: 1 µg/mL (≈ 3.81 µM)
[2]; concentration that inhibited 90% of the 20 C. difficile clinical isolates, read-out: MIC90
  MIC90: 2 µg/mL (≈ 7.63 µM)
[3]
  IC50 at 24 h: > 128 µg/mL
[4]
  safety index: Vero IC50 as times the MIC90 against strains of C. difficile: > 64 times
L. casei
  MIC: 128 µg/mL (≈ 488 µM)
E. fecalis
  MIC: 128 µg/mL (≈ 488 µM)
Bif. adolescentis
  MIC: 4 µg/mL (≈ 15.3 µM)
B. fragilis; [8]
  MIC: 2 µg/mL (≈ 7.63 µM)
B. fragilis; [9]
  MIC: 2 µg/mL (≈ 7.63 µM)
L. rhamanosus
  MIC: > 256 µg/mL
Bif. longum; [10]
  MIC: 4 µg/mL (≈ 15.3 µM)
Bif. longum; [11]
  MIC: 8 µg/mL (≈ 30.5 µM)
Bif. longum; [12]
  MIC: 16 µg/mL (≈ 61 µM)
Bif. longum; [13]
  MIC: 4 µg/mL (≈ 15.3 µM)
B. dorei
  MIC: 2 µg/mL (≈ 7.63 µM)

## COc1cc2c(cc1O)CCN[C@]21CS[C@@H]2c3c(OC(C)=O)c(C)c4c(c3[C@H](COC1=O)N1[C@@H]2[C@H]2c3c(cc(C)c(OC)c3O)C[C@@H]([C@@H]1C#N)N2C)OCO4 [ET-770, ecteinascidin 770]
Bif. breve
  MIC: ≤ 2 µg/mL
L. brevis
  MIC: ≤ 2 µg/mL
Escherichia coli
  MIC: 32.43 µM (≈ 25 µg/mL)
[5]
  time to eliminate / clear C. difficile: 6 h
Bacillus subtilis
  MIC: 1.01 µM (≈ 0.779 µg/mL)
[1]
  MIC: ≤ 0.19 µg/mL
Enterococcal species
  MIC: ≤ 2 µg/mL
Bif. angulatum
  MIC: ≤ 2 µg/mL
[6]
  MIC: 2.02 µM (≈ 1.56 µg/mL)
E. faecium
  MIC: ≤ 2 µg/mL
[2]
  MIC90: 0.125 µg/mL (≈ 0.162 µM)
  MIC50: 0.06 µg/mL (≈ 0.0778 µM)
[2]; 48 h
  MIC50: ≤ 0.06 µg/mL
[2]; ATCC630, read-out: minimum inhibitory concentration (MIC), C. difficile ATCC 630
  MIC: 0.03 µg/mL (≈ 0.0389 µM)
[2]; ATCC43255, read-out: minimum inhibitory concentration (MIC), C. difficile ATCC 43255
  MIC: 0.06 µg/mL (≈ 0.0778 µM)
[2]; ATCCBAA1870, read-out: minimum inhibitory concentration (MIC), C. difficile ATCC BAA-1870 (Ribotype-027), purchased compounds, panel test
  MIC: 0.125 µg/mL (≈ 0.162 µM)
[2]; read-out: minimum inhibitory concentration (MIC), C. difficile CD-1 (Ribotype-027)
  MIC: 0.125 µg/mL (≈ 0.162 µM)
[2]; read-out: minimum inhibitory concentration (MIC), C. difficile CD-6 (Ribotype-027)
  MIC: 0.125 µg/mL (≈ 0.162 µM)
[2]; read-out: minimum inhibitory concentration (MIC), C. difficile CD-10(Ribotype-027)
  MIC: 0.125 µg/mL (≈ 0.162 µM)
[2]; read-out: minimum inhibitory concentration (MIC), C. difficile CD-12
  MIC: 0.125 µg/mL (≈ 0.162 µM)
[2]; read-out: minimum inhibitory concentration (MIC), C. difficile CD-13
  MIC: 0.06 µg/mL (≈ 0.0778 µM)
[2]; read-out: minimum inhibitory concentration (MIC), C. difficile CD-15
  MIC: 0.06 µg/mL (≈ 0.0778 µM)
[2]; read-out: minimum inhibitory concentration (MIC), C. difficile CD-22
  MIC: 0.125 µg/mL (≈ 0.162 µM)
[2]; read-out: minimum inhibitory concentration (MIC), C. difficile CD-23
  MIC: 0.06 µg/mL (≈ 0.0778 µM)
[2]; read-out: minimum inhibitory concentration (MIC), C. difficile CD-24
  MIC: 0.125 µg/mL (≈ 0.162 µM)
[2]; read-out: minimum inhibitory concentration (MIC), C. difficile CD-26 (Ribotype-027)
  MIC: 0.125 µg/mL (≈ 0.162 µM)
[2]; read-out: minimum inhibitory concentration (MIC), C. difficile CD-28
  MIC: 0.03 µg/mL (≈ 0.0389 µM)
[2]; read-out: minimum inhibitory concentration (MIC), C. difficile CD-29 (Ribotype-027)
  MIC: 0.06 µg/mL (≈ 0.0778 µM)
[2]; read-out: minimum inhibitory concentration (MIC), C. difficile CD-30
  MIC: 0.125 µg/mL (≈ 0.162 µM)
[2]; read-out: minimum inhibitory concentration (MIC), C. difficile NR-49302
  MIC: 0.06 µg/mL (≈ 0.0778 µM)
[2]; read-out: minimum inhibitory concentration (MIC), C. difficile NR-49304
  MIC: 0.06 µg/mL (≈ 0.0778 µM)
[2]; read-out: minimum inhibitory concentration (MIC), C. difficile NR-49308
  MIC: 0.125 µg/mL (≈ 0.162 µM)
[2]; read-out: minimum inhibitory concentration (MIC), C. difficile NR-49319
  MIC: 0.06 µg/mL (≈ 0.0778 µM)
In vitro
  IC50 at 24 h: > 128 µg/mL
[4]
  safety index: Vero IC50 as times the MIC90 against strains of C. difficile: more than 1024 times
L. casei
  MIC: ≤ 2 µg/mL
E. fecalis
  MIC: ≤ 2 µg/mL
Bif. adolescentis
  MIC: ≤ 2 µg/mL
B. fragilis; [8]
  MIC: ≤ 2 µg/mL
B. fragilis; [9]
  MIC: ≤ 2 µg/mL
L. rhamanosus
  MIC: ≤ 2 µg/mL
Bif. longum; [10]
  MIC: ≤ 2 µg/mL
Bif. longum; [11]
  MIC: ≤ 2 µg/mL
Bif. longum; [12]
  MIC: ≤ 2 µg/mL
Bif. longum; [13]
  MIC: ≤ 2 µg/mL
[7]
  IC50: 130 nM
B. dorei
  MIC: ≤ 2 µg/mL
